Columns and labels:
[1] = test system: hPGC-1 promoter; assay: hPGC-1 promoter luciferase reporter assay in transiently transfected L6 cells; assay type: cell-based; settings: for activity at 1 µM: 1 μM compound; for activity at 1 µM / activity at 5 µM / activity at 25 µM: reporter vector phPGC1(2.2)Luc, luciferase activity relative to no compound; for activity at 5 µM: 5 μM compound; for activity at 25 µM: 25 μM compound; for promoter activating ability relative to the case of adding no compound: at compound final concentration of 1 μM, 5 μM or 25 μM, phPGC1(2.2)Luc
Experimental: Various reporter vectors shown in FIG. 1 were transiently transfected into L6 cells. Specifically, L6 cells were cultured in a tissue culture dish having a diameter of 10 cm and at the time when it was reached 50% confluent, 5 μg of the above plasmid and 1.5 μg of a plasmid pCH110 containing β-galactosidase gene controlled by β-actin promoter were used in combination in order to standardize gene transfection efficiency and the plasmids were introduced into the cells using FuGENE™6 (BOEHRINGER MANNHEIM, USA, 1814 443). After 24 hours, the cells were transferred into a 96-well culture dish, followed by additional 6 hours of culture. From the reports until now, since it is known that 9-cis-RETINOIC ACID (one of vitamin A acids) increases the expression of PGC-1 gene derived from mouse in cells (Cell, 92, 829-839 (1998)), 9-cis-RETINOIC ACID (SIGMA, USA, R4643) having a final concentration of 1 μM was added and the mixture was treated for 24 hours. Then, the cells were dissolved with a cell dissolving liquid LCβ (Toyo Ink, Japan) and luciferase activity thereof was measured using a PicaGene Luminescent Kit (Toyo Ink, Japan, 309-04321). By the way, all the activity measurements were carried out three times per measurement and each experiment was repeated at least twice to confirm the reproducibility.
Each reporter activity was standardized by β-galactosidase activity and expressed by a relative value wherein the value in the case of adding no compound was regarded as 1. In L6 cells, hPGC-1 reporter was increased a maximum of about 2.5 times by the treatment with 9-cis-RETINOIC ACID and thus a result consistent with the report that the expression of PGC-1 gene derived from mouse was enhanced by 9-cis-RETINOIC ACID was obtained.
Using the reporter vector phPGC1(2.2)Luc in the method described in Example 5, screening of a compound stimulating an hPGC-1 promoter activity was carried out wherein commercially available compounds were used as test compounds. […] By the way, Compound B, Compound E and Compound G are commercially available as the code number 4K@UH1-646 of INTERBIOSCREEN, as the code number MS0447 of MARLIN and as the code number A1773/0075171 of ZELINSKY, respectively and are 5-(4-fluorobenzylidene)-2,4-thiazolidinedione, 5-(4-bromobenzylidene)-2,4-thiazolidinedione, 2-(3-aminophenyl)-5-benzoyl-(1H)-benzimidazole, respectively.

[2] = test system: L6 cells; assay: Measurement of mitochondrial enzymatic activity (WST-1 mitochondrial dehydrogenase colorimetric assay) in L6 cells; assay type: cell-based, rat; settings: for activity at 1 µM / activity at 5 µM / activity at 25 µM: Rattus norvegicus, 24 hours, relative to no compound
Experimental: Rat myoblast L6 (ATCC, CRL-1458) was maintained Dulbecco's modified Eagle medium containing 10% fetal bovine serum (GIBCO BRL, USA, 11965-092) and cultured in a wet air containing 5% CO2 at 37° C.
For the investigation of mitochondrial enzymatic activity of cells, a reagent WST-1 (DOJINDO, 342-06451) was used, which enabled the measurement of mitochondrial dehydrogenase activity of living cells by colorimetric assay method. Specifically, L6 cells were cultured in a tissue culture dish having a diameter of 10 cm and after reached confluent, the cells were transferred into a 96-well tissue culture dish. At that time, the medium was changed to Dulbecco's modified Eagle medium containing no Phenol Red (GIBCO BRL, USA, 21063-029). […] After the addition of each compound and 24 hours of treatment, the medium containing the compound was sucked and discarded and thereto were added 100 μl of Dulbecco's modified Eagle medium containing no Phenol Red and no fetal bovine serum and 10 μL of PBS containing 5 mM WST-1 and 0.2 mM 1-Methoxy PMS (DOJINDO, 345-04001). After 4 hours of reaction at 37° C., absorbance was measured at a measuring wavelength of 450 nm. In this regard, all the activity measurements were carried out three times per measurement and each experiment was repeated at least twice to confirm the reproducibility.
Tables 2(a) and 2(b) show the results of 9-cis-RETINOIC ACID and the compounds obtained in Example 6, respectively. Each value was expressed by a relative value wherein the absorbance of the sample containing no cell was subtracted as a background from each absorbance and the value in the case of adding no compound was regarded as 1. […] As mentioned above, it was shown that substances stimulating an hPGC-1 promoter activity have an action to activate mitochondrial enzymes.

With CC1=C(/C=C/C(C)=C\C=C\C(C)=C\C(=O)O)C(C)(C)CCC1 [9-cis-RETINOIC ACID, reference compound] the “increase of hPGC-1 reporter activity (maximum)” value ([1]; 1 μM, 24 hours, normalized with β-galactosidase, no compound = 1, maximum over the reporter vectors) was “about 2.5 times”, the reporter activity ([1]; 1 μM, 24 hours, reporter vector hPGC1(0.1)Luc) was “completely lost” and the “activity enhancement (9-cis-RETINOIC ACID responsibility) of reporter” value ([1]; 1 μM, 24 hours, reporter vectors hPGC1(0.2)Luc to hPGC1(5.2)Luc) was “strongly observed”. For the same compound, the “mitochondrial enzymatic activity (statement in words)” value ([2]; 24 hours treatment, Dunnett test) was “increased mitochondrial enzymatic activity with a significant difference”.

Compound O=C1NC(=O)C(=Cc2ccc(F)cc2)S1 [Compound B, 5-(4-fluorobenzylidene)-2,4-thiazolidinedione] has an activity at 1 µM [1] of 160%, an activity at 5 µM [1] of 203% and an activity at 25 µM [1] of 202%. For the same compound, the “promoter activating ability relative to the case of adding no compound” value [1] was “more than twice”, the activity at 1 µM [2] was 94% and the activity at 5 µM [2] was 121%. It also gave an activity at 25 µM [2] of 175%.

With O=C1NC(=O)C(=Cc2ccc(Br)cc2)S1 [Compound E, 5-(4-bromobenzylidene)-2,4-thiazolidinedione] the activity at 1 µM [1] was 146%, the activity at 5 µM [1] was 208% and the activity at 25 µM [1] was 157%. The “promoter activating ability relative to the case of adding no compound” value [1] was “more than twice”, the activity at 1 µM [2] was 102% and the activity at 5 µM [2] was 141%. It also gave an activity at 25 µM [2] of 285%.

Nc1cccc(-c2nc3cc(C(=O)c4ccccc4)ccc3[nH]2)c1 [Compound G, 2-(3-aminophenyl)-5-benzoyl-(1H)-benzimidazole] showed an activity at 1 µM [1] of 207%, an activity at 5 µM [1] of 175% and an activity at 25 µM [1] of 91%. The “promoter activating ability relative to the case of adding no compound” value [1] was “more than twice”, the activity at 1 µM [2] was 80% and the activity at 5 µM [2] was 102%. For the same compound, the activity at 25 µM [2] was 176%.

Source: patent publication US20040115626A1, “Human pgc-1 promoter” (priority 2000, published 2004)
